Data published in patent US9751869B2, “LXR modulators” (BRISTOL-MYERS SQUIBB COMPANY, priority 2013, dated 2017).

Target: T1, LXRβ (Homo sapiens, UniProt P55055)
T1 construct: Co-transfection expression plasmids, comprising full-length LXRα (pCMX-h LXRα or LXRβ (pCMX-hLXRβ)); expressed in transfected cells; host or cells: CV-1 African green monkey kidney cells, transient transfection with pCMX-hLXRβ
T1 sequence (P55055 1-460): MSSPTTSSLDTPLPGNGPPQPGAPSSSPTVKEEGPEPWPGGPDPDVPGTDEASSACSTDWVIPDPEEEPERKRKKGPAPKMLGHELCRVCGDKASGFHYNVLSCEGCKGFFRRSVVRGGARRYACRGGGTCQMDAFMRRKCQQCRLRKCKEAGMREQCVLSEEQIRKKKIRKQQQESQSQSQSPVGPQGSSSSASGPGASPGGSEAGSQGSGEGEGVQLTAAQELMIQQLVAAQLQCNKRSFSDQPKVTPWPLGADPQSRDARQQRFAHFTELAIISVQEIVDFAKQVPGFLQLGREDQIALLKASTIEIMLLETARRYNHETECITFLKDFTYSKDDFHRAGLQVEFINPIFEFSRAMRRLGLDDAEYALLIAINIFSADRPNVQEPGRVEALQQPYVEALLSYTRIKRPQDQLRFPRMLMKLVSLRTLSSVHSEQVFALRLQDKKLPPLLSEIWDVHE
T1 sequence (P19793 1-462 partner): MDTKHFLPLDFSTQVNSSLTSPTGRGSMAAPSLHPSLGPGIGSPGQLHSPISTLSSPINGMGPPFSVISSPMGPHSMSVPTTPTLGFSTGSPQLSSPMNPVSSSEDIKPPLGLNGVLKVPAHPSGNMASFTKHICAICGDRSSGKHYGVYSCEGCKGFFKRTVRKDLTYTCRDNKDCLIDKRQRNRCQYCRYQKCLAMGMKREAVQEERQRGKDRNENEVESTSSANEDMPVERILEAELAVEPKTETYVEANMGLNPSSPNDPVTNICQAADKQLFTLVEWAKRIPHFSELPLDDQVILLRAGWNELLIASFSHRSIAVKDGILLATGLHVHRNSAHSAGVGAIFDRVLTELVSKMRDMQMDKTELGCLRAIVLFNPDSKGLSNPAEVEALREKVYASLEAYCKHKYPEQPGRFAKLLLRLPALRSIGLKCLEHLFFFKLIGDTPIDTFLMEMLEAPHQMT
Assay: LXR/LXRE co-transfection assay (luciferase reporter) in CV-1 cells, LXRβ
Format: cell-based
Conditions: for EC50: CV-1 cells transfected with pCMX-hLXRβ and LXREx1-Tk-Luciferase, 20 hours incubation, read-out: LXRbeta agonism EC50; for Emax: CV-1 cells, relative to maximum response of high control N-(3-((4-fluorophenyl)-(naphthalene-2-sulfonyl)amino)propyl)-2,2-dimethylpropionamide, read-out: LXRbeta % EFFICACY
Outline: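 CV-1 cells transiently co-transfected with full-length human LXRβ, LXRE-Tk-luciferase reporter and β-galactosidase control, then exposed to compound (≤0.5% DMSO) for 20 h at 37 °C before luminescence read. EC50 from 10-point, half-log dose curves; efficacy relative to the sulfonamide high control, means of 2–3 experiments.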

SMILES	EC50 [nM]	Emax [%]
Cc1nc(-c2ccc3c(c2)OC(F)(F)O3)c(-c2cc(-c3cc(F)c(CO)c(S(C)(=O)=O)c3)ccc2-n2ccc(C(N)=O)n2)o1 [Example 360, 1-(3-(4-(2,2-difluorobenzo[d][1,3]dioxol-5-yl)-2-methyloxazol-5-yl)-3-fluoro-4′-(hydroxymethyl)-5′-(methylsulfonyl)-[1,1′-biphenyl]-4-yl)-1H-pyrazole-3-carboxamide]	263	12
CS(=O)(=O)c1cccc(-c2ccc(-n3ccc(C(N)=O)n3)c(-c3oc(C4CC4)nc3-c3ccc(OC(F)(F)F)cc3)c2)c1 [Example 361, 1-(3-(2-cyclopropyl-4-(4-(trifluoromethoxy)phenyl)oxazol-5-yl)-3′-(methylsulfonyl)-[1,1′-biphenyl]-4-yl)-1H-pyrazole-3-carboxamide]	652	12
Cc1nc(-c2ccc3c(c2)OC(F)(F)O3)c(-c2cc(-c3cccc(S(C)(=O)=O)c3)ccc2-n2ccc(C#N)n2)o1 [Example 362, 1-(3-(4-(2,2-difluorobenzo[d][1,3]dioxol-5-yl)-2-methyloxazol-5-yl)-3′-(methylsulfonyl)-[1,1′-biphenyl]-4-yl)-1H-pyrazole-3-carbonitrile]	64	22
Cc1nc(-c2ccc3c(c2)OC(F)(F)O3)c(-c2cc(-c3cccc(S(C)(=O)=O)c3)ccc2-n2ccc(CO)n2)o1 [Example 363, (1-(3-(4-(2,2-difluorobenzo[d][1,3]dioxol-5-yl)-2-methyloxazol-5-yl)-3′-(methylsulfonyl)-[1,1′-biphenyl]-4-yl)-1H-pyrazol-3-yl)methanol]	1520	22
Cc1nc(-c2ccc3c(c2)OC(F)(F)O3)c(-c2cc(-c3cccc(C(C)(C)C(N)=O)c3)ccc2-n2ccc(C(N)=O)n2)o1 [Example 364, 1-(3′-(1-amino-2-methyl-1-oxopropan-2-yl)-3-(4-(2,2-difluorobenzo[d][1,3]dioxol-5-yl)-2-methyloxazol-5-yl)-[1,1′-biphenyl]-4-yl)-1H-pyrazole-3-carboxamide]	950	18
Cc1nc(-c2ccc(OC(F)(F)F)cc2)c(-c2cc(-c3cccc(C(C)(C)C(N)=O)c3)ccc2-n2ccc(CC#N)n2)o1 [Example 365, 2-(4′-(3-(cyanomethyl)-1H-pyrazol-1-yl)-3′-(2-methyl-4-(4-(trifluoromethoxy)phenyl)oxazol-5-yl)-[1,1′-biphenyl]-3-yl)-2-methylpropanamide]	424	76
Cc1nc(-c2ccc(OC(F)(F)F)cc2)c(-c2cc(-c3cccc(C(C)(C)C(N)=O)c3)ccc2-n2ccc(C(=O)NCC(F)(F)F)n2)o1 [Example 366]	293	28
Cc1nc(-c2ccc(OC(F)(F)F)cc2)c(-c2cc(-c3cccc(S(C)(=O)=O)c3)ccc2-n2ccc(CC#N)n2)o1 [Example 369, 2-(1-(3-(2-methyl-4-(4-(trifluoromethoxy)phenyl)oxazol-5-yl)-3′-(methylsulfonyl)-[1,1′-biphenyl]-4-yl)-1H-pyrazol-3-yl)acetonitrile]	226	99
Cc1nc(-c2ccc(OC(F)(F)F)cc2)c(-c2cc(-c3cc(F)c(CO)c(S(C)(=O)=O)c3)ccc2-n2ccc(CC#N)n2)o1 [Example 370]	125	86
Cc1nc(-c2ccc(OC(F)(F)F)cc2)c(-c2cc(-c3cccc(S(C)(=O)=O)c3)ccc2-n2ccc(C(=O)NCC(F)(F)F)n2)o1 [Example 371, 1-(3-(2-methyl-4-(4-(trifluoromethoxy)phenyl)oxazol-5-yl)-3′-(methylsulfonyl)-[1,1′-biphenyl]-4-yl)-N-(2,2,2-trifluoroethyl)-1H-pyrazole-3-carboxamide]	119	33
Cc1nc(-c2ccc(OC(F)(F)F)cc2)c(-c2cc(-c3cc(F)c(CO)c(S(C)(=O)=O)c3)ccc2-n2ccc(C(=O)NCC(F)(F)F)n2)o1 [Example 372]	123	38
Cc1nc(-c2ccc(OC(F)(F)F)cc2)c(-c2cc(-c3cccc(S(C)(=O)=O)c3)ccc2-n2ccc(C(C)(C)C#N)n2)o1 [Example 373]	92	22
Cc1nc(-c2ccc(OC(F)(F)F)cc2)c(-c2cc(-c3cccc(S(C)(=O)=O)c3)ccc2-n2ccc(COC(N)=O)n2)o1 [Example 374, (1-(3-(2-methyl-4-(4-(trifluoromethoxy)phenyl)oxazol-5-yl)-3′-(methylsulfonyl)-[1,1′-biphenyl]-4-yl)-1H-pyrazol-3-yl) methyl carbamate]	421	47
Cc1nc(-c2ccc(OC(F)(F)F)cc2)c(-c2cc(-c3cc(F)c(CO)c(S(C)(=O)=O)c3)ccc2-n2ccc(COC(N)=O)n2)o1 [Example 375, (1-(3′-fluoro-4′-(hydroxymethyl)-3-(2-methyl-4-(4-(trifluoromethoxy)phenyl)oxazol-5-yl)-5′-(methylsulfonyl)-[1,1′-biphenyl]-4-yl)-1H-pyrazol-3-yl) methyl carbamate]	198	62
Cc1nc(-c2ccc(OC(F)(F)F)cc2)c(-c2cc(-c3cccc(C(C)(C)C(N)=O)c3)ccc2-n2ccc(COC(N)=O)n2)o1 [Example 376, (1-(3′-(1-amino-2-methyl-1-oxopropan-2-yl)-3-(2-methyl-4-(4-(trifluoromethoxy)phenyl)oxazol-5-yl)-[1,1′-biphenyl]-4-yl)-1H-pyrazol-3-yl)methyl carbamate]	1300	53
Cc1nc(-c2ccc(OC(F)(F)F)cc2)c(-c2cc(-c3cc(F)c(CO)c(S(C)(=O)=O)c3)ccc2-n2ccc(C(C)(C)C#N)n2)o1 [Example 377, 2-(1-(3′-fluoro-4′-(hydroxymethyl)-3-(2-methyl-4-(4-(trifluoromethoxy)phenyl)oxazol-5-yl)-5′-(methylsulfonyl)-[1,1′-biphenyl]-4-yl)-1H-pyrazol-3-yl)-2-methylpropanenitrile]	28	23
Cc1nc(-c2ccc(OC(F)(F)F)cc2)c(-c2cc(-c3ccc(CO)c(S(C)(=O)=O)c3)ccc2-n2ccc(C(C)(C)C#N)n2)o1 [Example 378, 2-(1-(4′-(hydroxymethyl)-3-(2-methyl-4-(4-(trifluoromethoxy)phenyl)oxazol-5-yl)-3-(methylsulfonyl)-[1,1′-biphenyl]-4-yl)-1H-pyrazol-3-yl)-2-methylpropanenitrile]	15	29
Cc1nc(-c2ccc(OC(F)(F)F)cc2)c(-c2cc(-c3cc(F)c(CO)c(S(C)(=O)=O)c3)ccc2-n2cc(Cl)c(C(F)(F)F)n2)o1 [Example 379, (4′-(4-chloro-3-(trifluoromethyl)-1H-pyrazol-1-yl)-3-fluoro-3′-(2-methyl-4-(4-(trifluoromethoxy)phenyl)oxazol-5-yl)-5-(methylsulfonyl)-[1,1′-biphenyl]-4-yl)methanol]	27	86
Cc1nc(-c2ccc(OC(F)(F)F)cc2)c(-c2cc(-c3cccc(S(C)(=O)=O)c3)ccc2-n2cc(Cl)c(C(F)(F)F)n2)o1 [Example 380, 5-(4-(4-chloro-3-(trifluoromethyl)-1H-pyrazol-1-yl)-3′-(methylsulfonyl)-[1,1′-biphenyl]-3-yl)-2-methyl-4-(4-(trifluoromethoxy)phenyl) oxazole]	465	29
